{"source": "patent US7893252B2", "about": "“Selectively depolymerized galactomannan polysaccharide” (priority 2003, dated 2011)", "type_in_all_cases": "in vivo", "key": {"[1]": {"assay": "Biodistribution of 3H-galactomannan in tumor-bearing and non-tumor bearing mice (Example 6)", "procedure": "The biodistribution of 3H-galactomannan was studied in tumor-bearing and non-tumor bearing mice. […] 3H-galactomannan elimination from plasma, kidneys, lungs and tumor in the various groups was rapid, an average of approximately 50% of the one-hour radioactivity was detected at six hours except in tumor-bearing mice, where the radioactivity in tumor samples from mice treated with 6 or 60 mg/kg of 3H-galactomannan with or without 5-FU averaged approximately 72% remaining after six hours. Elimination of 3H-galactomannan from the liver was more gradual than in other tissues, and on average, more than 50% of the radioactivity detected at one hour after injection was still present at 24 hours.\nMale NCr-nu athymic nude mice (Charles Rivers Laboratories, Raleigh, N.C.) were acclimated and housed as described above. The first set of animals (a total of 18 mice) were non-tumored mice. The second set of 18 mice were tumored as follows. […]\nTritiation of GM from G. triacanthos was performed as follows. […] Total yield of the labeled GM was 3.8 mCi, specific radioactivity was 300 μCi/mg.\nAll 36 mice, divided into 18 groups, were given a single intravenous injection of cold or tritiated GM (either 6 or 60 mg/kg) or of a combination of GM (60 mg/kg, cold or tritiated) and 5-FU (114 mg/kg) on the same day. Non-labeled GM was formulated in saline, and tritiated GM was added to the solution so that each animal received 10 μCi of radioactivity. […] All dosing solutions (100 μL each) were counted in duplicate. […]\nAfter weighing, livers were dissolved in 10 mL of Soluene 350 (Packard Instruments, Downers Grove, Ill.) and incubated first for 4 hrs at 50° C., and at room temperature, until tissues were solubilized. One millilter of the resulting solution was counted in a scintillation counter as a single sample. Based on tissue weight and the sample volume, the number of μCi of tritiated GM per gram of tissue was calculated.\nKidneys were treated in the same manner, but dissolved in 2 mL of Soluene. […] Plasma samples (50 μL each) were placed direct into Safety Solve and counted as a single sample. […]"}, "[2]": {"test_system": "mice", "assay": "Acute toxicology, single IV dose in mice", "details": "single IV dose; galactomannan (336 mg/m2), 112 mg/kg (336 mg/m2); combination 417/222 mg/kg (1251/666 mg/m2); n=5/group", "procedure": "Acute toxicology studies of the galactomannan of the present invention were performed in mice, rats and dogs and subchronic toxicology studies were performed in rats and dogs. The following is a summary of the findings of these studies: […]"}, "[3]": {"test_system": "rats", "assay": "Acute toxicology, single IV dose in rats", "procedure": "(§1) Acute toxicology studies of the galactomannan of the present invention were performed in mice, rats and dogs and subchronic toxicology studies were performed in rats and dogs. The following is a summary of the findings of these studies:\nIn rats (n=5/sex/group), single IV doses of 140 mg/kg (840 mg/m2) 5-FU, 72 mg/kg (432 mg/m2) galactomannan or 140/72 mg/kg of the combination produced no deaths in any of the groups.\nToxic changes in body weight, feed consumption, and hematology were less severe in the rats injected with the combination, versus those injected with 5-FU alone."}, "[4]": {"test_system": "dogs", "assay": "Acute toxicology, single IV injection in dogs", "details": "5-FU 28.5 mg/kg, galactomannan 15 mg/kg, combination 28.5/15 mg/kg", "procedure": "as §1\nThe surviving dogs remained clinically normal and had no treatment-related changes in body weight, feed consumption, ECG tracings, clinical pathology or gross tissue changes during the 21-day study period."}, "[5]": {"test_system": "rats", "assay": "Repeat dose I.V. rat study with GMP grade galactomannan (Example 8)", "procedure": "Studies with repeat dose I.V. in rats with up to 52-day recovery period was performed using filtered GMP grade galactomannan material containing 48 or 96 mg/kg (288 or 576 mg/m2). Five animals of each sex were sacrificed at days 5, 28 and 56.\nThe galactomannan of the invention has minimal histological effects with only 1/30 rats injected with 48 mg/kg dose of the GMP galactomannan clinical solution having granulomatous inflammation. […] It was concluded that galactomannan clinical solutions, up to a dose of 15 mg/kg (555 mg/m2; 9 mg/mL), is safe for human use and poses no undue risk to health."}}, "data": [{"substance": "(((1,4)-linked β-D-mannopyranose)17-((1,6)-linked-β-D-galactopyranose)10)12) [GM]", "values": [{"measurement": "increase of the amount of bound galactomannan for the 10-times higher dose", "setting": "[1]; 60 mg/kg versus 6 mg/kg", "result": 10, "unit": "fold"}, {"measurement": "saturation of binding", "setting": "[1]; 6 to 60 mg/kg (18 to 180 mg/m2)", "result": "did not reach saturation"}, {"measurement": "binding to liver, kidney, lung, tumor, and plasma", "setting": "[1]; single i.v. injection, 6 or 60 mg/kg", "result": "freely binds"}, {"measurement": "clinical signs of toxicity, death or decreased weight gain", "setting": "[2]", "result": "no clinical signs of toxicity, death or decreased weight gain"}, {"measurement": "deaths", "setting": "[3]; 5-FU 140 mg/kg, galactomannan 72 mg/kg, combination 140/72 mg/kg, n=5/sex/group", "result": "no deaths"}, {"measurement": "untoward effects", "setting": "[3]; galactomannan 72 mg/kg (432 mg/m2) alone", "result": "no significant untoward effects"}, {"measurement": "death", "setting": "[4]", "result": "0/2"}, {"measurement": "rats having granulomatous inflammation", "setting": "[5]; 48 mg/kg dose of GMP galactomannan clinical solution", "result": "1/30"}, {"measurement": "rats having granulomatous inflammation", "setting": "[5]; 96 mg/kg dose of GMP galactomannan clinical solution", "result": "None of the 30"}]}]}
